Data from patent US11246856B2, “Methods of treating resistant cancers” (University of Maryland, Baltimore, priority 2017, dated 2022).

How the values were obtained:
Format in all cases: cell-based
[1] = test system: SKMELS-PLX-R, SKMEL28-PLX-R and WM3248-PLX-R cells; assay: Cell proliferation, other PLX4032-resistant lines; conditions: ERK1/2 inhibitor treatment, FIG. 5I
Description: (§1) A375, SK-MEL-5 and SK-MEL-28 cell lines were maintained in DMEM growth medium containing 10% FCS, 2 mM L-glutamine and 1 mM sodium pyruvate. The WM3248 cells were maintained in MCDB153:L15 (4:1) growth medium containing 2% FCS, […] insulin and 1.68 mM CaCl2. To create PLX4032-resistant cells, A375, SK-MEL-5, SK-MEL-28 and WM3248 cells were treated with […] in monolayer culture in growth medium for several weeks. The surviving cells were then expanded and cultured in increasing doses of PLX4032 up to […]. The resulting PLX4032-resistant cells, designated PLX4032-resistant (e.g., A375-PLX-R) were routinely maintained in the presence of […] PLX4032.
This predicts that the BRAF inhibitors-resistant cells should remain sensitive to ERK1/2 inhibitors. To assess the role of ERK1/2 PLX4032 resistant cells were treated with SCH772984, a specific inhibitor of ERK1/2 (31), and the impact on cell proliferation was monitored.

A375-PLX-R cells = assay: Cell proliferation, PLX4032-resistant A375-PLX-R cells; conditions: ERK1/2 inhibitor treatment, FIG. 5H
Description: as §1

[2] = test system: YAP1, TAZ and TEAD in A375 and A375-PLX-R cells; assay: YAP1/TAZ/TEAD mRNA and protein level after verteporfin, monolayer cells; conditions: proteasome inhibitor with verteporfin, FIG. 4I
Description: Equivalent amounts of protein were electrophoresed on denaturing and reducing 10% polyacrylamide gels and transferred to nitrocellulose membrane. The membrane was blocked by 5% nonfat dry milk for one hour and incubated with 1:1000 primary antibody in 5% nonfat dry milk. Blots were rinsed in TBS-T and then incubated with secondary antibodies (1:5000) for 2 h. Secondary antibody binding was visualized using ECL Prime (Amersham) chemiluminescence detection technology. For immunostaining, cells were harvested, suspended in growth medium, and plated in LAB-TEK II Chamber Slide System. After 24 h, the cells were fixed with 4% paraformaldehyde at room temperature for 15 min, washed three with phosphate-buffered saline, in 0.1% Triton X-100 for 15 min, washed with phosphate-buffered saline, and blocked for 1 h with phosphate-buffered saline containing 7.5% fetal calf serum. Primary antibodies were added, and the slides incubated overnight at 4° C. Cells were then washed three times with phosphate-buffered saline and incubated 1 h with the appropriate Alexa Flour fluorescence probe-conjugated secondary antibody. After additional washing, the cells were stained with DAPI for 10 min prior to imaging.
Total RNA was isolated using Illustra RNAspin mini kit (GE Healthcare), and 1 μg of RNA was used for cDNA synthesis. Gene expression was measured by real time PCR using Light Cycler 480 SYBR Green I Master Mix (04-707 516 001) from Roche Diagnostics (Indianapolis, Ind.). The signals were normalized using cyclophilin A control primers. The gene specific primers used for detection of mRNA levels were as follows: cyclophilin A (forward, 5′-[…] (SEQ ID NO: 3); reverse, 5′-[…] (SEQ ID NO: 4)), TAZ (forward, 5′-GTATCCCAGCCAATC TCG (SEQ ID NO: 5); reverse, 5′-TTCTGAGTGGGGTGGTTC (SEQ ID NO: 6)) and YAP1 (forward, 5′-[…] (SEQ ID NO: 7); reverse, 5′-[…], (SEQ ID NO: 8)) (11).
To understand the mechanism of verteporfin action, monolayer A375 and A375-PLX-R cells were treated with […] verteporfin for 24 h and the impact on YAP1/TAZ mRNA and protein level was monitored. […] The proteasome is known to regulate YAP1/TAZ level (29,30) and so whether the proteasome was responsible for the observed reductions was examined.

SMILES	proliferation of PLX4032-resistant cells [1]	A375-PLX-R cells number (A375-PLX-R cells)	reversal of verteporfin-dependent reduction in YAP1, TAZ and TEAD level [2]
O=C(Nc1ccc2[nH]nc(-c3ccncc3)c2c1)[C@@H]1CCN(CC(=O)N2CCN(c3ccc(-c4ncccn4)cc3)CC2)C1 [SCH772984]	reduced	time-dependent reduction	
CC(=O)N[C@@H](CSC(=O)[C@]1([C@@H](O)C(C)C)NC(=O)[C@H](C)[C@@H]1O)C(=O)O [lactacystin]			not reversed
